Measurements: US20030104461A1, “Methods for detecting cells with numerical chromosomal abnormalities” (priority 2001, published 2003)
Where two headings read alike, the source gives them in different places.

Key:
human lymphocytes [1] = system: human lymphocytes
Method: Peripheral blood was collected in heparinized vacutainers from healthy male and female volunteers (<40 years of age). Approximate 10 ml of whole blood was dispensed into a Lymphoprep™ tube (Nycomed Pharma AS Diagnostic, Oslo, Norway) containing ˜10 ml of sterile phosphate buffered saline. Following centrifugation for 20 minutes at 2000 rpm, the lymphocyte population was isolated and washed (1X) in PBS. Stock cultures of isolated lymphocytes were established in Williams E medium supplemented with 10% fetal calf serum, 100 U/ml penicillin and 100 ug/ml streptomycin, 2 mM L-glutamine and 1.0% Phytohemmaglutanin-M form (all reagents from Gibco BRL Life Technologies, Inc., Grand Island, N.Y.). The stock cultures were maintained at 37° C. in 5% CO2 atmosphere for about 48 hours. The lymphocytes were treated with 0 to 100 μg/ml of the aneugen, Noscapine, (Sigma Chemicals), a known aneugen, for 24 hours at 37° C.
The Noscapine treated and untreated lymphocytes, were then centrifuged for 6 minutes at 1000 rpm, the supernatant was removed and the lymphocytes were resuspended in 5 ml of Phosphate Buffered Saline (PBS; GIBCO BRL). The lymphocytes were then centrifuged, the supernatant removed, and the cells resuspended in 0.5 ml of PBS. The cell suspension was pipetted thoroughly through a 9-inch Pasteur pipette (Kimble Glass Inc.) to ensure single cell suspension. While vortexing a tube containing −20° C. (70%) ethanol (about 4.5 ml volume), the cell suspension was added drop by drop. The ethanol solution was prepared by adding 30 ml of distilled water to 70 ml of 200 proof ethyl alcohol from Phamco Products. The cells were then stored at −20° C. in the ethanol for at least 24 hours.
The cells that were stored at −20° C. for at least 24 hours were stained with the H3-P antibody and Alexa Fluor as described above for the H3-P+Alexa (GREEN) stained cells. After the incubation of the cells for 30 minutes at 37° C. with the Alexa Fluor, 5 ml of PBS was added to the cells, the cells were centrifuged, the supernatant removed and the cell pellet resuspended in 1.0 ml of PI/RNase A stain (as described above). The cells were stored on ice until analyzed.
Exited instrument set up mode to acquisition mode. Acquisition for DNA analysis was started and 10,000 ungated cells were acquired. […] The FL2 voltage was optimized as needed per sample (i.e., to keep the G1 peak on 200 of FL2-A x-axis) for Aneuploidy and Polyploidy acquisition. 50,000 ungated cells were acquired from each sample. The data was saved in listmode format.
The presence of aneuploid and polyploid cells in the lymphocytes was determined as follows. CellQuest™ Software was opened, and PLOT and OPEN a dialog box from the tool bar for creating a dot plot. FILE was selected and a data file was opened. […] The dot plot was expanded to the width of the paper. A gate was set for the DNA distribution by starting slightly to the left of the cycling population then continuing to the far right region of the dot plot ending the gate at the 2nd Y axis. The extension of this gate to the 2nd Y-axis of the dot plot was to accommodate cells with greater than 4n DNA (see FIG. 1A). PLOT and OPEN a dialog box was chosen from the tool bar for creating a dot plot.
Using the interphase cells as a guide, the first gate was set over the mitotic cell area above the G0G1-S phase areas.

human lymphocytes [2] = test: Manual microscopic analysis of polyploid cells (polyploid index, Giemsa stained slides); assay type: cell-based; conditions: at each concentration of Noscapine; 1000 consecutive mitotic cells scored for 8n mitotic cells
Method: Human lymphocytes described above and treated or not with Noscapine as described above were subjected to manual analysis of numerical chromosomal abnormalities for comparison with the number of cells having numerical chromosomal abnormalities (i.e. polyploidy) obtained in Example 1. For manual analysis, samples of cells were centrifuged for 6 minutes at 1000 rpm. The supernatant was removed and the cell pellet was resuspended in 5 ml of 1% pre-warmed (37° C.) sodium citrate. The latter solution was prepared by mixing 1 g of […] (Sigma Chemicals) in 100 ml of distilled water. The cells were immediately centrifuged as described above. The supernatant was removed and the pellet was vigorously re-suspended in 5 ml of 4° C. fixative (3:1 methanol:acetic acid). The cells were then centrifuged as described above and the pellet resuspended in 5 ml of 4° C. fixative (3:1 methanol:acetic acid). The cells were then stored overnight at −20° C. or until slide preparation. The slides were prepared as follows. The cells were centrifuged as described above and the supernatant was then poured off. The pellet was re-suspended in about 2 ml of fresh fixative solution. […] The polyploid index was determined by systematically scoring 1000 consecutive mitotic cells for the frequency of 8n mitotic cells under low magnification (bright field).

[3] = stimulated human lymphocytes treated 24 hours at 37° C., flow cytometry

CN[C@H]1CCc2cc(OC)c(OC)c(OC)c2-c2ccc(OC)c(=O)cc21 [Colcemid®, Colcemid] was tested, and the “percent of hyperdiploid cells (mitotic cells with DNA content >4n but <8n)” value (human lymphocytes [1]) was “increased”, the “percent of hypodiploid cells (mitotic cells with DNA content >2n but <4n)” value (human lymphocytes [1]) was “increased” and the “percent of polyploid cells (mitotic cells with DNA content of 8N)” value (human lymphocytes [1]) was “high”.

With COc1ccc2c(c1OC)C(=O)O[C@@H]2[C@H]1c2c(cc3c(c2OC)OCO3)CCN1C [Noscapine] the “number of polyploid cells counted manually compared with flow cytometric evaluation” value (human lymphocytes [2]) was “similar”.

For C=C1[C@@H](C)[C@H]2[C@H](Cc3ccccc3)NC(=O)[C@]23OC(=O)/C=C/[C@H](O)CCC[C@@H](C)C/C=C/[C@H]3[C@@H]1O [Cytochalasin B], the “percent of hyperdiploid cells (mitotic cells with DNA content >4n but <8n)” value (human lymphocytes [1]; [3]) was “minimal”, the “percent of hypodiploid cells (mitotic cells with DNA content >2n but <4n)” value (human lymphocytes [1]; [3]) was “high” and the “percent of polyploid cells (mitotic cells with DNA content of 8N)” value (human lymphocytes [1]; [3]) was “high”.
